{
  "source": "patent US20040030106A1",
  "about": "“Novel compounds and process” (priority 2000, published 2004)",
  "key": {"P14 peptides": {"test_system": "P14 peptides", "test": "IgG anti-peptide ELISA after immunisation of mice with P14 peptide-BSA conjugates", "type": "in vivo", "details": "25 μg conjugate IM with AS2 adjuvant on days 0, 14, 28, day 14 post III; for IgG anti-peptide responses (midpoint titre), individual mice: one value per mouse", "description": "To evaluate the immunogenicity of the conjugates produced in Example 1, 10 mice per group were immunised intramuscularly (IM) on days 0, 14 and 28 with 25 μg of conjugate mixed with AS2 adjuvant (oil/water emulsion, 3D-MPL, QS21). The serologic response for the P14 peptides was analysed by ELISA on days 28 and 42 (14 post III)."}, "IgE": {"test_system": "IgE", "test": "Anti-IgE antibody response after immunisation of mice with cyclic P15-BSA conjugates, by comparison with mAb 11", "type": "in vivo", "details": "mAb11 equivalents, 25 μg conjugate IM with AS2 adjuvant on days 0, 14, 28, 14 days post III", "description": "(§1) The P15 peptide conjugates produced in Example 1 were also used to immunise 10 mice per group,intramuscularly (IM) on days 0, 14 and 28 with 25 μg of conjugate mixed with AS2 adjuvant (oil/water emulsion, 3D-MPL, QS21). Very homogenous responses were obtained with all cyclic P15 peptides."}, "P15 peptides": {"test_system": "P15 peptides", "test": "Anti-peptide antibody response after immunisation of mice with cyclic P15-BSA conjugates", "type": "in vivo", "details": "10 mice per group, 25 μg conjugate IM with AS2 adjuvant on days 0, 14, 28; 14 days post III", "description": "as §1"}, "human basophils [1]": {"test_system": "human basophils", "experimental": "Blood was collected by venepuncture from 4 allergic donors into tubes containing 0.1 volumes 2.7% EDTA, pH 7.0. It is then diluted 1/2 with an equal volume of HBH medium containing 0.1% human serum albumin (HBH/HSA). The resulting cell suspension was layered over 50% volume Ficoll-Paque and centrifuged at 400 g for 30 minutes at room temperature. The peripheral blood mononuclear cell (PBMC) layer at the interface is collected and the pellet is discarded. The cells are washed once in HBH/HSA, counted, and re-suspended in HBH/HSA at a cell density of 2.0×10^6 per ml. 100 μl cell suspension are added to wells of a V-bottom 96-well plate containing 100 μl diluted test sample or vaccine induced antibody. Each test sample is tested at a range of dilutions with 6 wells for each dilution. Well contents are mixed briefly using a plate shaker, before incubation at 37° C. for 30 minutes with shaking at 120 rpm.\nFor each serum dilution 3 wells are triggered by addition of 10 μl Lol p I extract (final dilution 1/10000) and 3 wells have 10 μl HBH/HSA added for assessment of anaphylactogenicity. Well contents are again mixed briefly using a plate shaker, before incubation at 37° C. for a further 30 minutes with shaking at 120 rpm. Incubations are terminated by centrifugation at 500 g for 5 min. Supernatants are removed for histamine assay using a commercially available histamine EIA measuring kit (Immunotech). Control wells containing cells without test sample are routinely included to determine spontaneous and triggered release. Wells containing cells ±0.05% Igepal detergent are also included to determine total cell histarnine.\nHistamine release due to test samples=% histamine release from test sample treated cells−% spontaneous histamine release."}, "human basophils [2]": {"test_system": "human basophils", "test": "Human basophil blocking assay: inhibition of Lol p I triggered histamine release", "type": "cell-based", "details": "human basophils from allergic donors, triggered with allergen (Lol p I)", "excerpt": "The degree of inhibition of histamine release can be calculated using the formula:\n% inhibition=1−(histamine release from test sample treated cells*)×100(histamine release from antigen stimulated cells*)\nValues corrected for spontaneous release."}},
  "note": "Several values for one entry are separate records, joined by “and”; a condition that tells them apart may be missing. Identical values can stand only once. Bridge positions count the residues as written; N and C are the ends. Ends that are not written are not given here.",
  "data": [
    {"substance": "ACPEWPGSRDRCTLAG-NH2 (disulfide 2-12 (inferred)) [P14e]", "values": [
      {"measurement": "IgG anti-peptide responses (midpoint titre), Average", "setting": "P14 peptides", "result": 3200},
      {"measurement": "IgG anti-peptide responses (midpoint titre), geomean", "setting": "P14 peptides", "result": 3051},
      {"measurement": "IgG anti-peptide responses (midpoint titre), individual mice", "setting": "P14 peptides", "result": "3151 and 2345 and 3224 and 3051 and 2873 and 4647 and 1461 and 4227 and 3821"}
    ]},
    {"substance": "Ac-CLEDGQVMDCGSK-NH2 (disulfide 1-10 (inferred)) [P15b, 325 conjugated to BSA]", "values": [
      {"measurement": "anti-IgE (μg/ml or mAB11 equivalent), average", "setting": "IgE", "result": 70, "unit": "µg/mL"},
      {"measurement": "anti-IgE (μg/ml or mAB11 equivalent), geomean", "setting": "IgE", "result": 35, "unit": "µg/mL"},
      {"measurement": "anti-peptide (midpoint titre), average", "setting": "P15 peptides", "result": 11169},
      {"measurement": "anti-peptide (midpoint titre), geomean", "setting": "P15 peptides", "result": 8385}
    ]},
    {"substance": "Ac-CLEDGQVMDVDLCGGSSGGK-NH2 (disulfide 1-13 (inferred)) [P15e, 328 conjugated to BSA]", "values": [
      {"measurement": "anaphylactogenicity of the induced antiserum", "setting": "human basophils [1]", "result": "without the antiserum being anaphylactogenic"},
      {"measurement": "histamine release blocking activity of the induced antiserum", "setting": "human basophils [2]", "result": "inhibited histamine release"},
      {"measurement": "anti-IgE (μg/ml or mAB11 equivalent), average", "setting": "IgE", "result": 129, "unit": "µg/mL"},
      {"measurement": "anti-IgE (μg/ml or mAB11 equivalent), geomean", "setting": "IgE", "result": 113, "unit": "µg/mL"},
      {"measurement": "anti-peptide (midpoint titre), average", "setting": "P15 peptides", "result": 57432},
      {"measurement": "anti-peptide (midpoint titre), geomean", "setting": "P15 peptides", "result": 55207}
    ]},
    {"substance": "Ac-CLEDGQVMDVDLCGSK-NH2 (disulfide 1-13 (inferred)) [P15c, 326 conjugated to BSA]", "values": [
      {"measurement": "anaphylactogenicity of the induced antiserum", "setting": "human basophils [1]", "result": "without the antiserum being anaphylactogenic"},
      {"measurement": "histamine release blocking activity of the induced antiserum", "setting": "human basophils [2]", "result": "inhibited histamine release"},
      {"measurement": "anti-IgE (μg/ml or mAB11 equivalent), average", "setting": "IgE", "result": 200, "unit": "µg/mL"},
      {"measurement": "anti-IgE (μg/ml or mAB11 equivalent), geomean", "setting": "IgE", "result": 189, "unit": "µg/mL"},
      {"measurement": "anti-peptide (midpoint titre), average", "setting": "P15 peptides", "result": 66452},
      {"measurement": "anti-peptide (midpoint titre), geomean", "setting": "P15 peptides", "result": 65685}
    ]},
    {"substance": "Ac-CLEDGQVMDVDLCPREAAEGDK-NH2 [P15d]", "values": [
      {"measurement": "anaphylactogenicity of the induced antiserum", "setting": "human basophils [1]", "result": "without the antiserum being anaphylactogenic"},
      {"measurement": "histamine release blocking activity of the induced antiserum", "setting": "human basophils [2]", "result": "inhibited histamine release"},
      {"measurement": "anti-IgE (μg/ml or mAB11 equivalent), average", "setting": "IgE", "result": 174, "unit": "µg/mL"},
      {"measurement": "anti-IgE (μg/ml or mAB11 equivalent), geomean", "setting": "IgE", "result": 111, "unit": "µg/mL"},
      {"measurement": "anti-peptide (midpoint titre), average", "setting": "P15 peptides", "result": 35118},
      {"measurement": "anti-peptide (midpoint titre), geomean", "setting": "P15 peptides", "result": 32801}
    ]},
    {"substance": "Ac-CPEWPGSRDRCGSK-NH2 (disulfide 1-11 (inferred)) [P14f]", "values": [
      {"measurement": "IgG anti-peptide responses (midpoint titre), Average", "setting": "P14 peptides", "result": 77521},
      {"measurement": "IgG anti-peptide responses (midpoint titre), geomean", "setting": "P14 peptides", "result": 73541},
      {"measurement": "IgG anti-peptide responses (midpoint titre), individual mice", "setting": "P14 peptides", "result": "67086 and 101502 and 36031 and 74838 and 56496 and 51304 and 92885 and 92868 and 113041 and 89155"}
    ]},
    {"substance": "Ac-CWPGSRDRRCGSK-NH2 (disulfide 1-10 (inferred)) [P14I]", "values": [
      {"measurement": "IgG anti-peptide responses (midpoint titre), Average", "setting": "P14 peptides", "result": 48146},
      {"measurement": "IgG anti-peptide responses (midpoint titre), geomean", "setting": "P14 peptides", "result": 45336},
      {"measurement": "IgG anti-peptide responses (midpoint titre), individual mice", "setting": "P14 peptides", "result": "85882 and 28989 and 39268 and 39460 and 57276 and 50834 and 54664 and 62263 and 36621 and 26202"}
    ]}
  ]
}
